According to patent publication US12077503B2, “Substituted cyclic amides and their use as herbicides” (FMC CORPORATION, priority 2015, dated 2024):

Tests used:
Type in all cases: in vivo
[1] = test system: redroot pigweed (Amaranthus retroflexus); assay: Test G Pre-Emergence Protocol; conditions: Amaranthus retroflexus, pre-emergence, 312 h, evaluated after 13 days; for pest or weed control at 15.625 g/ha: 15.625 g ai/ha; for pest or weed control at 15.625 g/ha / pest or weed control at 250 g/ha: read-out: Pigweed, Redroot damage rating (100=total damage to plant; 0=no damage to plant); for pest or weed control at 62.5 g/ha: 62.5 g ai/ha, 100=total damage to plant, 0=no damage to plant, read-out: plant damage rating, Pigweed, Redroot; for pest or weed control at 250 g/ha: 250 g ai/ha
Outline: (§1)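 Pre-emergence spray, 15.625/62.5/250 g/ha, vehicle acetone:water 50:50 + 0.5% Tween 20, applied 1 d after sowing. Glasshouse 24/16° C, 14 h light, 65% RH, watered twice daily. Visual damage rating at 13 d, 0–100 scale.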

[2] = test system: ivy-leaved morning glory (Ipomoea hederacea); assay: Test G Pre-Emergence Protocol; conditions: Ipomoea, pre-emergence, 312 h, evaluated after 13 days; for pest or weed control at 62.5 g/ha: 62.5 g ai/ha, 100=total damage to plant, 0=no damage to plant, read-out: plant damage rating, Morningglory, Ivy-leaved; for pest or weed control at 250 g/ha: 250 g ai/ha, read-out: Morningglory, Ivy-leaved damage rating (100=total damage to plant; 0=no damage to plant)
Outline: as §1

[3] = test system: barnyardgrass (Echinochloa crus-galli); assay: Test G Pre-Emergence Protocol; conditions: Echinochloa crus-galli, pre-emergence, 312 h, evaluated after 13 days; for pest or weed control at 15.625 g/ha: 15.625 g ai/ha, read-out: Barnyard grass damage rating (100=total damage to plant; 0=no damage to plant); for pest or weed control at 62.5 g/ha: 62.5 g ai/ha, 100=total damage to plant, 0=no damage to plant, read-out: plant damage rating, Barnyardgrass; for pest or weed control at 250 g/ha: 250 g ai/ha, read-out: Barnyardgrass damage rating (100=total damage to plant; 0=no damage to plant)
Outline: as §1

[4] = test system: velvetleaf (Abutilon theophrasti); assay: Test G Pre-Emergence Protocol; conditions: Abutilon theophrasti, pre-emergence, 312 h, evaluated after 13 days; for pest or weed control at 15.625 g/ha: 15.625 g ai/ha; for pest or weed control at 15.625 g/ha / pest or weed control at 250 g/ha: read-out: Velvetleaf damage rating (100=total damage to plant; 0=no damage to plant); for pest or weed control at 62.5 g/ha: 62.5 g ai/ha, 100=total damage to plant, 0=no damage to plant, read-out: plant damage rating, Velvetleaf; for pest or weed control at 250 g/ha: 250 g ai/ha
Outline: as §1

corn (Zea mays) [5] = assay: Test G Pre-Emergence Protocol; conditions: Zea mays, pre-emergence, 312 h, evaluated after 13 days; for plant injury at 15.625 g/ha: 15.625 g ai/ha; for plant injury at 15.625 g/ha / plant injury at 250 g/ha: read-out: Corn damage rating (100=total damage to plant; 0=no damage to plant); for plant injury at 62.5 g/ha: 62.5 g ai/ha, 100=total damage to plant, 0=no damage to plant, read-out: plant damage rating, Corn; for plant injury at 250 g/ha: 250 g ai/ha
Outline: as §1

[6] = test system: giant foxtail (Setaria faberi); assay: Test G Pre-Emergence Protocol; conditions: Setaria faberi, pre-emergence, 312 h, evaluated after 13 days; for pest or weed control at 15.625 g/ha: 15.625 g ai/ha; for pest or weed control at 15.625 g/ha / pest or weed control at 250 g/ha: read-out: Foxtail, Giant damage rating (100=total damage to plant; 0=no damage to plant); for pest or weed control at 62.5 g/ha: 62.5 g ai/ha, 100=total damage to plant, 0=no damage to plant, read-out: plant damage rating, Foxtail, Giant; for pest or weed control at 250 g/ha: 250 g ai/ha
Outline: as §1

[7] = test system: redroot pigweed (Amaranthus retroflexus); assay: Test G Post-Emergence Protocol; conditions: Amaranthus retroflexus, post-emergence, 312 h; for pest or weed control at 15.625 g/ha: 15.625 g ai/ha, evaluated after 13 days (100=total damage to plant; 0=no damage to plant), read-out: Pigweed, Redroot damage rating; for pest or weed control at 62.5 g/ha: 62.5 g ai/ha, read-out: Pigweed, Redroot damage rating (100=total damage to plant; 0=no damage to plant); for pest or weed control at 62.5 g/ha / pest or weed control at 250 g/ha: evaluated after 13 days; for pest or weed control at 250 g/ha: 250 g ai/ha, read-out: damage to plant, Pigweed, Redroot (100=total damage to plant; 0=no damage to plant)
Outline: (§2)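 Scores run 0 (no damage) to 100 (total damage) and were taken 13 days after spraying. Plants had been raised in pots for 8 days under glasshouse control (24/16 °C, 14 h photoperiod, 65% humidity) and then treated at 15.625, 62.5 or 250 g/ha.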

[8] = test system: ivy-leaved morning glory (Ipomoea hederacea); assay: Test G Post-Emergence Protocol; conditions: Ipomoea, post-emergence, 312 h; for pest or weed control at 15.625 g/ha: 15.625 g ai/ha, evaluated after 13 days (100=total damage to plant; 0=no damage to plant), read-out: Morningglory, Ivy-leaved damage rating; for pest or weed control at 62.5 g/ha: 62.5 g ai/ha, read-out: Morningglory, Ivy-leaved damage rating (100=total damage to plant; 0=no damage to plant); for pest or weed control at 62.5 g/ha / pest or weed control at 250 g/ha: evaluated after 13 days; for pest or weed control at 250 g/ha: 250 g ai/ha, read-out: damage to plant, Morningglory, Ivy-leaved (100=total damage to plant; 0=no damage to plant)
Outline: as §2

[9] = test system: barnyardgrass (Echinochloa crus-galli); assay: Test G Post-Emergence Protocol; conditions: Echinochloa crus-galli, post-emergence, 312 h; for pest or weed control at 15.625 g/ha: 15.625 g ai/ha, evaluated after 13 days (100=total damage to plant; 0=no damage to plant), read-out: Barnyardgrass damage rating; for pest or weed control at 62.5 g/ha: 62.5 g ai/ha, read-out: Barnyardgrass damage rating (100=total damage to plant; 0=no damage to plant); for pest or weed control at 62.5 g/ha / pest or weed control at 250 g/ha: evaluated after 13 days; for pest or weed control at 250 g/ha: 250 g ai/ha, read-out: damage to plant, Barnyardgrass (100=total damage to plant; 0=no damage to plant)
Outline: as §2

[10] = test system: velvetleaf (Abutilon theophrasti); assay: Test G Post-Emergence Protocol; conditions: Abutilon theophrasti, post-emergence, 312 h; for pest or weed control at 15.625 g/ha: 15.625 g ai/ha, evaluated after 13 days (100=total damage to plant; 0=no damage to plant), read-out: Velvetleaf damage rating; for pest or weed control at 62.5 g/ha: 62.5 g ai/ha, read-out: Velvetleaf damage rating (100=total damage to plant; 0=no damage to plant); for pest or weed control at 62.5 g/ha / pest or weed control at 250 g/ha: evaluated after 13 days; for pest or weed control at 250 g/ha: 250 g ai/ha, read-out: damage to plant, Velvetleaf (100=total damage to plant; 0=no damage to plant)
Outline: as §2

corn (Zea mays) [11] = assay: Test G Post-Emergence Protocol; conditions: Zea mays, post-emergence, 312 h; for plant injury at 15.625 g/ha: 15.625 g ai/ha, evaluated after 13 days (100=total damage to plant; 0=no damage to plant), read-out: Corn damage rating; for plant injury at 62.5 g/ha: 62.5 g ai/ha, read-out: Corn damage rating (100=total damage to plant; 0=no damage to plant); for plant injury at 62.5 g/ha / plant injury at 250 g/ha: evaluated after 13 days; for plant injury at 250 g/ha: 250 g ai/ha, read-out: damage to plant, Corn (100=total damage to plant; 0=no damage to plant)
Outline: as §2

[12] = test system: giant foxtail (Setaria faberi); assay: Test G Post-Emergence Protocol; conditions: Setaria faberi, post-emergence, 312 h; for pest or weed control at 15.625 g/ha: 15.625 g ai/ha, evaluated after 13 days (100=total damage to plant; 0=no damage to plant), read-out: Foxtail, Giant damage rating; for pest or weed control at 62.5 g/ha: 62.5 g ai/ha, read-out: Foxtail, Giant damage rating (100=total damage to plant; 0=no damage to plant); for pest or weed control at 62.5 g/ha / pest or weed control at 250 g/ha: evaluated after 13 days; for pest or weed control at 250 g/ha: 250 g ai/ha, read-out: damage to plant, Foxtail, Giant (100=total damage to plant; 0=no damage to plant)
Outline: as §2

Compound | pest or weed control at 15.625 g/ha [1] | pest or weed control at 62.5 g/ha [1] | pest or weed control at 250 g/ha [1] | pest or weed control at 62.5 g/ha [2] | pest or weed control at 250 g/ha [2] | pest or weed control at 15.625 g/ha [3] | pest or weed control at 62.5 g/ha [3] | pest or weed control at 250 g/ha [3] | pest or weed control at 15.625 g/ha [4] | pest or weed control at 62.5 g/ha [4] | pest or weed control at 250 g/ha [4] | plant injury at 15.625 g/ha (corn (Zea mays) [5]) | plant injury at 62.5 g/ha (corn (Zea mays) [5]) | plant injury at 250 g/ha (corn (Zea mays) [5]) | pest or weed control at 250 g/ha [6] | pest or weed control at 15.625 g/ha [7] | pest or weed control at 62.5 g/ha [7] | pest or weed control at 250 g/ha [7] | pest or weed control at 15.625 g/ha [8] | pest or weed control at 62.5 g/ha [8] | further results
CN1C[C@@H](c2ccc(C(F)(F)F)cc2)[C@H](C(=O)Nc2ccc(Cl)nn2)C1=O (racemic) [Compound 1561] | 0% | 20% | 30% | 0% | 20% | 30% | 50% | 80% | 0% | 0% | 10% | 10% | 0% | 20% | 70% | 0% | 20% | 30% | 0% | 10% | pest or weed control at 15.625 g/ha [6]: 30%; pest or weed control at 62.5 g/ha [6]: 60%; pest or weed control at 250 g/ha [8]: 60%; pest or weed control at 15.625 g/ha [9]: 0%; pest or weed control at 62.5 g/ha [9]: 20%; pest or weed control at 250 g/ha [9]: 50%; pest or weed control at 15.625 g/ha [10]: 0%; pest or weed control at 62.5 g/ha [10]: 40%; pest or weed control at 250 g/ha [10]: 20%; plant injury at 15.625 g/ha (corn (Zea mays) [11]): 0%; plant injury at 62.5 g/ha (corn (Zea mays) [11]): 0%; plant injury at 250 g/ha (corn (Zea mays) [11]): 50%; pest or weed control at 15.625 g/ha [12]: 0%; pest or weed control at 62.5 g/ha [12]: 10%; pest or weed control at 250 g/ha [12]: 60%
CN1C[C@@H](c2ccc(C(F)(F)F)cc2)[C@H](C(=O)Nc2nnc[nH]2)C1=O (racemic) [Compound 1562] | 0% | 0% | 0% | 0% | 0% | 0% | 0% | 20% | 0% | 0% | 0% | 0% | 0% | 0% | 30% | 0% | 10% | 20% | 0% | 0% | pest or weed control at 250 g/ha [8]: 0%; pest or weed control at 15.625 g/ha [9]: 0%; pest or weed control at 62.5 g/ha [9]: 0%; pest or weed control at 250 g/ha [9]: 20%; pest or weed control at 15.625 g/ha [10]: 0%; pest or weed control at 62.5 g/ha [10]: 0%; pest or weed control at 250 g/ha [10]: 0%; plant injury at 15.625 g/ha (corn (Zea mays) [11]): 0%; plant injury at 62.5 g/ha (corn (Zea mays) [11]): 10%; plant injury at 250 g/ha (corn (Zea mays) [11]): 0%; pest or weed control at 15.625 g/ha [12]: 0%; pest or weed control at 62.5 g/ha [12]: 0%; pest or weed control at 250 g/ha [12]: 20%
Cc1nc(C(F)(F)F)ccc1NC(=O)[C@@H]1C(=O)N(C)C[C@H]1c1ccc(C(F)(F)F)cc1 (racemic) [Compound 1566] | 0% | 0% | 0% | 0% | 0% | 0% | 0% | 0% | 0% | 0% | 0% | 0% | 0% | 0% | 0% | 0% | 0% | 0% | 0% | 0% | pest or weed control at 15.625 g/ha ([2]; 15.625 g ai/ha, read-out: Morning-glory, Ivy-leaved damage rating (100=total damage to plant; 0=no damage to plant)): 0%; pest or weed control at 15.625 g/ha [6]: 0%; pest or weed control at 62.5 g/ha [6]: 0%; pest or weed control at 250 g/ha [8]: 0%; pest or weed control at 15.625 g/ha [9]: 0%; pest or weed control at 62.5 g/ha [9]: 10%; pest or weed control at 250 g/ha [9]: 20%; pest or weed control at 15.625 g/ha [10]: 0%; pest or weed control at 62.5 g/ha [10]: 0%; pest or weed control at 250 g/ha [10]: 0%; plant injury at 15.625 g/ha (corn (Zea mays) [11]): 0%; plant injury at 62.5 g/ha (corn (Zea mays) [11]): 0%; plant injury at 250 g/ha (corn (Zea mays) [11]): 0%; pest or weed control at 15.625 g/ha [12]: 0%; pest or weed control at 62.5 g/ha [12]: 0%; pest or weed control at 250 g/ha [12]: 0%
